Data: US10359430B2, “Selective near-infrared optical imaging of necrotic cells and simultaneous cell fixing and counter staining with metallacrown complexes” (THE REGENTS OF THE UNIVERSITY OF MICHIGAN, priority 2015, dated 2019)

How the values were obtained:
HeLa cells [1] = experiment: NIR epifluorescence microscopy of HeLa cells (necrotic cell labelling, simultaneous staining and fixing); type: cell-based, Human; conditions: 150 μM complex and 3 μM propidium iodide together, UV light (377 nm) 5 minutes
Protocol: Cells were seeded in a 8-well Lab Tek Chamber coverglass (Nunc, Dutsher S.A., Brumath, France) at a density of 6×10^4 cells/well and cultured at 37° C. in 5% humidified CO2 atmosphere.
The continued incubation enabled the internalization of the complexes.
All of the previously mentioned incubated HeLa cells were then washed with fresh OPTI-MEM® media and were incubated with 3 μM propidium iodide for 5 minutes. Propidium iodide is a commercially available stain (emitting in the visible range) for necrotic cells, and was used to confirm cell necrosis.
i. 377 nm with 50 nm band-pass filter with 50 nm bandwidth for the excitation and 805 nm long-pass filter 805 nm or 996 nm band-pass filter with 70 nm bandwidth for YbIII emission in the NIR range.
ii. […] for the excitation and 805 nm long-pass filter 805 nm or 996 nm band-pass filter with 70 nm bandwidth for YbIII emission in the NIR range. […]

[2] = Photostability stress tests; type: physicochemical
Protocol: Photostability stress tests of Yb^3+[Zn(II)MCpyzHA] (Yb λem=980 nm) and Nd^3+[Zn(II)MCpyzHA] (Nd λem=1064 nm) and the commercially available dye for necrotic cells (Propidium Iodide) were performed. The complexes (150 μM) or dye (50 μM) were dissolved in water and the complexes were also dissolved in OPTI-MEM® media. The MC solutions were exposed to 5 hours of UV radiation (377 nm). The propidium iodide solution was exposed to 5 hours of UV radiation (530 nm).

HeLa cells [3] = experiment: NIR epifluorescence microscopy of HeLa cells (necrotic cell labelling, simultaneous staining and fixing); type: cell-based, Human
[4] = Photophysical properties of the metallacrowns in solid state and in aqueous solutions; type: physicochemical; conditions: room temperature, excitation at 370 nm
Protocol: FIG. 4. illustrates the normalized excitation (λem(Nd^3+)=1070 nm, λem(Yb^3+)=980 nm) and emission (λex=370 nm) spectra of Yb^3+[Zn(II)MCpyzHA], at the top, and Nd^3+[Zn(II)MCpyzHA] MCs, at the bottom, (solid or 200 μM solutions, room temperature).

[5] = Photophysical parameters in OPTI-MEM media, cell supernatant and HeLa cells; type: physicochemical
Protocol: The Yb^3+[Zn(II)MCpyzHA] complexes were dissolved in OPTI-MEM® medium with 2% SVF (without cells) and were incorporated in HeLa cells, both with and without exposure to UV light. The results in are shown in FIG. 20, (A) (corrected and normalized excitation) and FIG. 20, (B) (corrected and normalized emission). […] The present inventors developed instrumentation in order to collect photophysical properties of MCs inside of cancer cells. They measured quantitative photophysical parameters (quantum yields and life times) inside of the cells with equipment which is usually adapted for measuring of (quantum yields and life times) in solids or in concentrated solutions.
The Yb^3+[Zn(II)MCpyzHA] complexes were collected together with cell supernatant (SN) and with HeLa cells treated with N-acetyl cysteine, both with and without exposure to UV light. For SN1 and cells1, incubation with NAC took place for 30 minutes, then the cells were washed, and incubation with Yb^3+[Zn(II)MCpyzHA] took place for 15 minutes. For SN2 and cells2, incubation with Yb^3+[Zn(II)MCpyzHA] took place for 15 minutes, and then NAC was added and incubation with NAC took place for 30 minutes. The results in are shown in FIGS. 20C (corrected and normalized excitation) and 20D (corrected and normalized emission). […]

[6] = Photophysical properties of the metallacrowns in solid state and in aqueous solutions; type: physicochemical
[7] = Table 3, No UV: After 5 h incubation with HeLa cells without illumination
[8] = Table 3, UV: After 5 h incubation with HeLa cells with UV illumination (during 8 min)

In the case of `CC[N+](C)(CC)CCC[n+]1c(-c2ccccc2)c2cc(N)ccc2c2ccc(N)cc21.[I-].[I-]` [propidium iodide, reference compound], the “Incubation time after which emission was observed in cells after UV illumination” value (HeLa cells [1]) is reported as 15 min, the “Photostability (fluorescence intensity)” value ([2]; 50 μM in water, 5 hours of irradiation at 530 nm) is reported as “dropped half of its initial intensity” and the “Specificity of the dye for cell state” value (HeLa cells [3]; 150 μM complex and 3 μM propidium iodide together, UV light (377 nm) 5 minutes) is reported as “specific for dead and apoptotic cells”.

In the case of `O=C([N-][O-])c1cnccn1.O=C([N-][O-])c1cnccn1.O=C([N-][O-])c1cnccn1.O=C([N-][O-])c1cnccn1.O=C([N-][O-])c1cnccn1.O=C([N-][O-])c1cnccn1.O=C([N-][O-])c1cnccn1.O=C([N-][O-])c1cnccn1.O=C([N-][O-])c1cnccn1.O=C([N-][O-])c1cnccn1.O=C([N-][O-])c1cnccn1.O=C([N-][O-])c1cnccn1.O=C([N-][O-])c1cnccn1.O=C([N-][O-])c1cnccn1.O=C([N-][O-])c1cnccn1.O=C([N-][O-])c1cnccn1.O=S(=O)([O-])C(F)(F)F.O=S(=O)([O-])C(F)(F)F.O=S(=O)([O-])C(F)(F)F.[Nd+3].[Zn+2].[Zn+2].[Zn+2].[Zn+2].[Zn+2].[Zn+2].[Zn+2].[Zn+2].[Zn+2].[Zn+2].[Zn+2].[Zn+2].[Zn+2].[Zn+2].[Zn+2].[Zn+2].c1ccncc1.c1ccncc1.c1ccncc1.c1ccncc1.c1ccncc1.c1ccncc1.c1ccncc1.c1ccncc1` [Nd^3+[Zn(II)MCpyzHA]], the Photostability ([2]; 150 μM in water and OPTI-MEM media, 5 hours of irradiation with 377 nm light) is reported as “fully photostable”, the “Fixing and staining of HeLa cells” value (HeLa cells [3]; 150 μM, 15 minutes, UV light (377 nm) 8 minutes, further 1 hour) is reported as “fixed and stained” and the “Q (quantum yield), D2O” value ([4]; 200 μM in D2O) is reported as 6.17(9) · 10^−2%. The “Q (quantum yield), H2O” value ([4]; 200 μM in H2O) was 7.7(1) · 10^−3%, the “Q (quantum yield), Solid” value ([4]; solid state) was 0.444(9) % and the τ2 ([5]; Table 3, In HeLa cells) was 0.808(8) μs. For the same compound, the “τ2 contribution (longer component)” value ([5]; Table 3, In HeLa cells) was 100%, the Quantum yield [5, 7] was 7.50(5) · 10^−3% and the τ1 [5, 7] was 0.261(1) μs. The τ1 contribution [5, 7] was 85%, the τ2 [5, 7] was 0.98(1) μs and the τ2 contribution [5, 7] was 15%. For the same compound, the Quantum yield ([5]; Table 3, OptiMEM) was 7.33(1) · 10^−3%, the τ1 ([5]; Table 3, OptiMEM) was 0.256(6) μs and the τ1 contribution ([5]; Table 3, OptiMEM) was 90%. The τ2 ([5]; Table 3, OptiMEM) was 1.1(1) μs, the τ2 contribution ([5]; Table 3, OptiMEM) was 10% and the Quantum yield ([5]; Table 3, OptiMEM-UV 1 h 30 min) was 7.7(1) · 10^−3%. For the same compound, the τ1 ([5]; Table 3, OptiMEM-UV 1 h 30 min) was 0.352(2) μs, the τ1 contribution ([5]; Table 3, OptiMEM-UV 1 h 30 min) was 67% and the τ2 ([5]; Table 3, OptiMEM-UV 1 h 30 min) was 0.874(7) μs. For the same compound, the τ2 contribution ([5]; Table 3, OptiMEM-UV 1 h 30 min) was 33%, the Quantum yield [5, 8] was 6.2(1) · 10^−3% and the τ1 [5, 8] was 0.376(3) μs. The τ1 contribution [5, 8] was 60%, the τ2 [5, 8] was 0.83(2) μs and the τ2 contribution [5, 8] was 40%. For the same compound, the “Change of luminescent properties in media, cell supernatant or HeLa cells” value ([5]; with/without exposure to UV light) was “did not change in OPTI-MEM® media or inside of the HeLa cells”, the “τ (luminescence lifetime), D2O” value ([6]; 200 μM in D2O, room temperature, excitation at 355 nm) was 1.29(1) μs and the “τ (luminescence lifetime), H2O” value ([6]; 200 μM in H2O, room temperature, excitation at 355 nm) was 0.214(4) μs. The “q (number of coordinated water molecules)” value ([6]; calculated from lifetimes, estimated error ±0.2) was 0.1 and the “τ (luminescence lifetime), Solid” value ([6]; solid state, room temperature, excitation at 355 nm) was 1.71(1) μs.
